Test results: the supplement of paper PMC10627819

How the values were obtained:
[1] = tested on: B. subtilis 168; assay: fitness (endpoint OD595 vs no drug) (fraction); higher = more growth
Outline: (§1)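 Fitness expresses the optical density reached at the stationary-phase transition as a fraction of the robust mean of no-drug control wells. It is capped at 1. Measurements were OD595 every 30 min for 14 h at 37 °C after inoculation of 384-well plates at OD595 0.01 (30 µl, or 55 µl for S. pneumoniae), minus the first reading.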

[2] = tested on: S. aureus Newman; assay: as above
Outline: as §1

[3] = tested on: S. pneumoniae D39V; assay: as above
Outline: as §1

[4] = tested on: B. subtilis 168; assay: Bliss interaction score (quartile over a dose matrix) (fitness difference); higher = more antagonism (negative = synergy)
Outline: (§2)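 Each OD595 reading at entry into stationary phase was scaled to the robust mean of the untreated wells on its plate, with a ceiling of 1. These ratios define fitness, and single-drug fitness was inferred from combinations. The Bliss score compares observed fitness with the product-based expectation and is reported as quartiles across all replicate types, technical, biological and donor/recipient.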

[5] = tested on: S. aureus DSM 20231; assay: as above
Outline: as §2

[6] = tested on: S. aureus Newman; assay: as above
Outline: as §2

[7] = tested on: S. pneumoniae D39V; assay: as above
Outline: as §2
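Throughout, for Bliss interaction score (quartile over a dose matrix): first quartile when negative (synergy) and third quartile when positive (antagonism).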
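Throughout, for fitness (endpoint OD595 vs no drug): OD595 on entry to stationary phase over no-drug wells; at most 1.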

Cc1onc(-c2ccccc2)c1C(=O)N[C@@H]1C(=O)N2[C@@H]1SC(C)(C)[C@@H]2C(=O)O [Oxacillin] + CN(C)c1cc(NC(=O)CNC(C)(C)C)c(O)c2c1C[C@H]1C[C@H]3[C@H](N(C)C)C(O)=C(C(N)=O)C(=O)[C@@]3(O)C(O)=C1C2=O [Tigecycline]
Conditions	fitness
[1], first compound 0.002 µg/mL, partner 0.039 µg/mL	≥ 1
[1], first compound 0.002 µg/mL, partner 0.078 µg/mL	0.976
[1], first compound 0.002 µg/mL, partner 0.156 µg/mL	0.992
[1], first compound 0.004 µg/mL, partner 0.039 µg/mL	0.963
[1], first compound 0.004 µg/mL, partner 0.078 µg/mL	0.943
[1], first compound 0.004 µg/mL, partner 0.156 µg/mL	0.95
[1], first compound 0.008 µg/mL, partner 0.039 µg/mL	0.998
[1], first compound 0.008 µg/mL, partner 0.078 µg/mL	0.945
[1], first compound 0.008 µg/mL, partner 0.156 µg/mL	0.962
[2], first compound 0.0156 µg/mL, partner 0.039 µg/mL	0.794
[2], first compound 0.0156 µg/mL, partner 0.078 µg/mL	0.798
[2], first compound 0.0156 µg/mL, partner 0.156 µg/mL	0.778
[2], first compound 0.0312 µg/mL, partner 0.039 µg/mL	0.751
[2], first compound 0.0312 µg/mL, partner 0.078 µg/mL	0.762
[2], first compound 0.0312 µg/mL, partner 0.156 µg/mL	0.745
[2], first compound 0.0625 µg/mL, partner 0.039 µg/mL	0.641
[2], first compound 0.0625 µg/mL, partner 0.078 µg/mL	0.663
[2], first compound 0.0625 µg/mL, partner 0.156 µg/mL	0.688
[3], first compound 0.01 µg/mL, partner 0.65 µg/mL	0.928
[3], first compound 0.01 µg/mL, partner 1.3 µg/mL	0.951
[3], first compound 0.01 µg/mL, partner 2.6 µg/mL	0.957
[3], first compound 0.02 µg/mL, partner 0.65 µg/mL	0.904
[3], first compound 0.02 µg/mL, partner 1.3 µg/mL	0.891
[3], first compound 0.02 µg/mL, partner 2.6 µg/mL	0.875
[3], first compound 0.04 µg/mL, partner 1.3 µg/mL	0.463
[3], first compound 0.04 µg/mL, partner 2.6 µg/mL	0.531

fitness, [1], one replicate
Conditions	first compound 0.0078 µg/mL	first compound 0.0155 µg/mL	first compound 0.031 µg/mL	first compound 0.075 µg/mL	first compound 0.15 µg/mL	first compound 0.3 µg/mL
partner 0.039 µg/mL	–	–	–	0.507	0.0264	0.0457
partner 0.078 µg/mL	–	–	–	0.549	0.0459	0.0479
partner 0.125 µg/mL	≥ 1	0.964	0.968	–	–	–
partner 0.156 µg/mL	–	–	–	0.607	0.049	0.0616
partner 0.25 µg/mL	0.962	≥ 1	0.923	–	–	–
partner 0.5 µg/mL	≥ 1	0.976	0.857	–	–	–

Conditions	Bliss interaction score
[4]	0.0355
[5]	-0.0365
[6]	0.0567
[7]	0.0953

CNC(C)C1CCC(N)C(OC2C(N)CC(N)C(OC3OCC(C)(O)C(NC)C3O)C2O)O1 (stereo not given) [Gentamicin] + CN1C2=CC=CC=C2N=C3C1=CC=CC3=O [Pyocyanin]
main component drawn
Conditions	fitness
[1], first compound 0.0625 µg/mL, partner 1.25 µg/mL	0.893
[1], first compound 0.0625 µg/mL, partner 2.5 µg/mL	0.802
[1], first compound 0.0625 µg/mL, partner 5 µg/mL	0.758
[1], first compound 0.125 µg/mL, partner 5 µg/mL	0.559
[1], first compound 0.25 µg/mL, partner 1.25 µg/mL	0.0424
[1], first compound 0.25 µg/mL, partner 2.5 µg/mL	0.038
[1], first compound 0.25 µg/mL, partner 5 µg/mL	0.0455
[2], first compound 0.5 µg/mL, partner 1.25 µg/mL	0.908
[2], first compound 0.5 µg/mL, partner 2.5 µg/mL	0.873
[2], first compound 1 µg/mL, partner 1.25 µg/mL	0.942
[2], first compound 1 µg/mL, partner 2.5 µg/mL	0.909
[2], first compound 1 µg/mL, partner 5 µg/mL	0.645
[2], first compound 2 µg/mL, partner 1.25 µg/mL	0.917
[2], first compound 2 µg/mL, partner 2.5 µg/mL	0.903
[2], first compound 2 µg/mL, partner 5 µg/mL	0.545
[3], first compound 2 µg/mL, partner 0.325 µg/mL	0.962
[3], first compound 2 µg/mL, partner 0.65 µg/mL	0.964
[3], first compound 2 µg/mL, partner 1.3 µg/mL	0.6
[3], first compound 4 µg/mL, partner 0.325 µg/mL	≥ 1
[3], first compound 4 µg/mL, partner 0.65 µg/mL	0.959
[3], first compound 4 µg/mL, partner 1.3 µg/mL	0.599
[3], first compound 8 µg/mL, partner 0.325 µg/mL	0.94
[3], first compound 8 µg/mL, partner 0.65 µg/mL	0.865
[3], first compound 8 µg/mL, partner 1.3 µg/mL	0.531

fitness, [2], one replicate, main component drawn
Conditions	first compound 0.375 µg/mL	first compound 0.75 µg/mL	first compound 1.5 µg/mL
partner 1.25 µg/mL	0.76	0.775	0.774
partner 2.5 µg/mL	0.791	0.776	0.783
partner 5 µg/mL	0.439	0.463	0.421

main component drawn
Conditions	Bliss interaction score
[4]	0.129
[5]	0.0622
[6]	0.111
[7]	-0.113

Cn1c2cccc(=O)c-2nc2ccccc21 [Pyocyanin] + CN[C@@H]1[C@H](O[C@H]2[C@H](O[C@H]3[C@H](O)[C@@H](O)[C@H](N=C(N)N)[C@@H](O)[C@@H]3N=C(N)N)O[C@@H](C)[C@]2(O)C=O)O[C@@H](CO)[C@H](O)[C@H]1O [Streptomycin]
fitness
Conditions	partner 1 µg/mL	partner 2 µg/mL	partner 4 µg/mL	partner 8 µg/mL
[1], first compound 1.25 µg/mL	–	0.938	0.765	–
[1], first compound 2.5 µg/mL	–	0.929	0.879	–
[1], first compound 5 µg/mL	–	0.818	0.791	0.686
[2], first compound 1.25 µg/mL	0.891	0.844	–	–
[2], first compound 2.5 µg/mL	0.796	0.693	–	–
[2], first compound 5 µg/mL	0.427	0.308	0.253	–
[3], first compound 0.325 µg/mL	–	≥ 1	≥ 1	0.935
[3], first compound 0.65 µg/mL	–	0.943	0.889	0.791
[3], first compound 1.3 µg/mL	–	–	0.734	0.592

fitness, [3], one replicate
Conditions	first compound 0.325 µg/mL	first compound 0.65 µg/mL	first compound 1.3 µg/mL
partner 2 µg/mL	–	–	0.756
partner 16 µg/mL	0.649	0.61	0.475

Conditions	Bliss interaction score
[4]	0.474
[5]	0.109
[6]	-0.0643
[7]	-0.103
